Experimental data from patent US20160058705A1 (priority 2014, published 2016).
“Also recorded” adds a separate entry of the source.

What was measured:
[1] = test system: TAC-induced cardiac hypertrophy; test: Echocardiography in mouse model of TAC (pressure overload-induced cardiac hypertrophy); type: in vivo; conditions: TAC mice, 300 μg/kg IP at days 1 and 7; compared with TAC controls
Text: (§1) All procedures involving animal use, housing, and surgeries were approved by the Stanford Institutional Animal Care and Use Committee (IACUC). Animal care and interventions were provided in accordance with the Laboratory Animal Welfare Act.
(§2) For constriction of transverse thoracic aorta (DeAlmeida et al. (2010) J. Vis. Exp. April 21(38) pii:172), mice were anesthetized using an isoflurane inhalational chamber, followed by endotracheal intubation using a 22-gauge angiocatheter (Becton, Dickinson Inc., Sandy, Utah) connected to a small animal ventilator (Harvard Apparatus, Holliston, Mass.). A left thoracotomy was performed via the fourth intercostal space, the transverse aorta was identified, and a 6.0 silk suture was placed between the innominate and left carotid arteries. The suture was tightened around a 271/2 gauge blunt needle, placed parallel to the aorta (FIG. 1B) to induce a constriction of ˜0.4 mm in diameter. In sham control mice, an identical procedure was conducted, except for the constriction of the aorta.
In vivo heart function was evaluated by echocardiography at 1 day prior to surgery (baseline) and on days 1, 7, and 14 post-surgery (FIG. 1A). […] Fractional shortening (FS), LV internal diameter at end diastole (LVIDd) and systole (LVIDs), and posterior LV wall thickness at end diastole (LVPWd) were measured. […]

[2] = test system: TAC-induced cardiac hypertrophy; test: Histology (Masson's trichrome) of heart sections two weeks post injury; type: in vivo, mouse; conditions: TAC mice
Text: as §1, §2
Histological analysis was performed following standard protocols for paraffin embedding. Mounted heart samples were stained for Masson's trichrome (TC, to label muscle fibers in red, collagen in blue, cytoplasm in pink, and nuclei in dark brown). A minimum of 4 sections per sample were used.

In the case of “pyroglutamyl apelin-13 [[Pyr1]-apelin-13]”, the “hypertrophic response / cardiac remodeling and dysfunction due to pressure overload” value [1] is reported as “more modest effect; also recorded: slight inhibition of cardiac remodeling and increase in FS” and the “size of LV and extent of cardiac fibrosis (trichrome histology)” value [2] is reported as “remarkable inhibition of the LV growth”.
